Active and inactive are the calls of the source.
How the values were obtained:
Beta-galactosidase = Beta-galactosidase (Escherichia coli, UniProt Q8VNN2); assay: PubChem AID 485352; assay type: functional
[1] = biological target: T1, Type-1 angiotensin II receptor (Homo sapiens, UniProt P30556); assay: antagonism of angiotensin II type 1 receptor – cell-based, uHTS hits, selectivity assay for APJ receptor antagonist project, dose response (AID 463214); assay type: functional;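 note: antagonist potency against angiotensin II stimulated AT1 response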
T1 sequence (P30556 whole entry): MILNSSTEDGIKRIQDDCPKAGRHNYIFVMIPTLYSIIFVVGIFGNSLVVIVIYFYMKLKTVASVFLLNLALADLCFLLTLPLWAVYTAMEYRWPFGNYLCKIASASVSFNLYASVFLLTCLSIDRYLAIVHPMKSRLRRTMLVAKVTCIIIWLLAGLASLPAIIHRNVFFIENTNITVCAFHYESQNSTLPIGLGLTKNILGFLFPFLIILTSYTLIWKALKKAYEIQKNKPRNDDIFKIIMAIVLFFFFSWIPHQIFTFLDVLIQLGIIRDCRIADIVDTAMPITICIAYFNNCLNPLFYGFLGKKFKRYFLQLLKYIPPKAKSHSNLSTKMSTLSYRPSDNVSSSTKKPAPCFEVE

[2] = biological target: T2, Low molecular weight phosphotyrosine protein phosphatase (Homo sapiens, UniProt P24666); assay type: functional; conditions: read-out: IC50_Mean;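 note: Dose-response confirmation assay measuring inhibition of LMPTP enzyme activity by fluorescence intensity read-out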
T2 sequence (P24666 whole entry): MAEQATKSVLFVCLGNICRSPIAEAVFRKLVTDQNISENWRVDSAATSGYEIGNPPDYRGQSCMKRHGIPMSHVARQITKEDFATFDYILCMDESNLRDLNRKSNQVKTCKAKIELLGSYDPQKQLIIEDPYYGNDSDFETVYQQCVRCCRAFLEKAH

[3] = biological target: FAD-linked sulfhydryl oxidase ALR (Homo sapiens, UniProt P55789); assay: ALR-catalysed DTT oxidation blockers – biochemical, H2O2 detection, luminescence, cherry-pick, dose response (AID 493248)
FAD-linked sulfhydryl oxidase ALR, sequence (P55789 whole entry, the tested form may be a part): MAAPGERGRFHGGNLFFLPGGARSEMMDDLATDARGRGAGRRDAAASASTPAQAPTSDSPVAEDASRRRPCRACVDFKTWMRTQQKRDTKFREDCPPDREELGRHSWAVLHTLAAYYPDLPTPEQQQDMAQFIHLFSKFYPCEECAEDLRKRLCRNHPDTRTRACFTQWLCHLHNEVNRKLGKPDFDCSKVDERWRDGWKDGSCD

[4] = biological target: Photoreceptor-specific nuclear receptor (Homo sapiens, UniProt Q9Y5X4); assay type: functional, cell-based;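 note: CHO-S cells with Gal4-NCOR and VP16-NR2E3 two-hybrid luciferase reporter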
Photoreceptor-specific nuclear receptor, sequence (Q9Y5X4 whole entry, the tested form may be a part): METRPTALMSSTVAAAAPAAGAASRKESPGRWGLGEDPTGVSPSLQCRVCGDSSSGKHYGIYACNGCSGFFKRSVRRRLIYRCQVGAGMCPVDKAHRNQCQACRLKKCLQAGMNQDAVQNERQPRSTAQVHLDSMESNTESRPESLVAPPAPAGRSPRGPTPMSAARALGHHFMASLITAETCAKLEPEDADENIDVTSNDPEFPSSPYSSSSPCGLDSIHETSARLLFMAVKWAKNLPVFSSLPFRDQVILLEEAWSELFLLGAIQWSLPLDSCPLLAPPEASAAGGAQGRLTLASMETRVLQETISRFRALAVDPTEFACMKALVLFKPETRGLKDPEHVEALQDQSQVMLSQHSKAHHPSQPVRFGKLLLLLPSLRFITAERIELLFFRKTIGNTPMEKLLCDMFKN

[5] = biological target: T3, Methionyl-tRNA synthetase, putative (Trypanosoma brucei brucei, UniProt Q38C91); assay type: functional, Trypanosoma brucei brucei strain 927/4 GUTat10.1
T3 sequence (Q38C91 whole entry): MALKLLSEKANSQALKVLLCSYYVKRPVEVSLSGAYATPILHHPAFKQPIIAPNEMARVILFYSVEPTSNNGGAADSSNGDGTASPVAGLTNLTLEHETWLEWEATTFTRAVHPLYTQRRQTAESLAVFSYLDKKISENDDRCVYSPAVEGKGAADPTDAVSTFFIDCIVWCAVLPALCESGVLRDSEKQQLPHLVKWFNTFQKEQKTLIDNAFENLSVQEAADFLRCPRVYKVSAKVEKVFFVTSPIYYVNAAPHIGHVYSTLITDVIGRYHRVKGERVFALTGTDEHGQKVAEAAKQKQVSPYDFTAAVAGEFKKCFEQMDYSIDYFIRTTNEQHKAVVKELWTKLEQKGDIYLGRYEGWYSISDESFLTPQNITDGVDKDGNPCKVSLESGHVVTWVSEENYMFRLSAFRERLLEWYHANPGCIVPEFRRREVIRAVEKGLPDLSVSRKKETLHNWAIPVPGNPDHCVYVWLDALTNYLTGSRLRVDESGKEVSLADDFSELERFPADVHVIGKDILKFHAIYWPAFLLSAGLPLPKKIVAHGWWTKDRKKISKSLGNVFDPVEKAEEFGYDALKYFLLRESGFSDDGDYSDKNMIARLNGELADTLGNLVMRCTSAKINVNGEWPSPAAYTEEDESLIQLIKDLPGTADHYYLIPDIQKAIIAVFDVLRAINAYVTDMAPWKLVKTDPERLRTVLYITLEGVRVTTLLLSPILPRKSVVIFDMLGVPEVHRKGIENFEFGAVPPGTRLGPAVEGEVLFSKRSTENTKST

[6] = Counterscreen for inhibitors of Trypanosoma brucei methionyl tRNA synthetase (MetRS): Luminescence-based cell-based high throughput dose response assay to identify compounds that are cytotoxic to Jurkat human T lymphocyte cells.; assay type: functional
[7] = biological target: T3, Methionyl-tRNA synthetase, putative; assay type: functional, Trypanosoma brucei brucei strain 927/4 GUTat10.1; remark: listed apart in the source
[8] = biological target: T4, Mitochondrial peptide methionine sulfoxide reductase (Bos taurus, UniProt P54149); assay: Absorbance-based biochemical high throughput dose response assay for activators of Methionine sulfoxide reductase A (MsrA).; assay type: functional
T4 sequence (P54149 whole entry): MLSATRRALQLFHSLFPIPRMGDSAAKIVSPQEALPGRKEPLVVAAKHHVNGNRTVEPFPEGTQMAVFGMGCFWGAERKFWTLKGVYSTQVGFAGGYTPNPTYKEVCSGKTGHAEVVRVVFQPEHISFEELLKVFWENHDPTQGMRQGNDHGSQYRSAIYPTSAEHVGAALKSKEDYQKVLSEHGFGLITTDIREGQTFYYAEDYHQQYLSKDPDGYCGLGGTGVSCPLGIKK

[9] = viability of uninfected HEp-2 cells – cell-based, HTS, cytotoxicity control for RSV inhibitor project, dose response (AID 2410); assay type: functional; conditions: human respiratory syncytial virus
[10] = tested on: Streptococcus sp. 'group A'; assay: Streptococcus pyogenes SK(-)GAS viability under kanamycin – luminescence, BacTiterGlo, confirmation, counter-screen for streptokinase expression inhibitor project, dose response (AID 1900); assay type: functional, organism-based
Streptokinase A = biological target: T5, Streptokinase A (Streptococcus pyogenes serotype M1, UniProt P10520); assay: viability-normalized secreted streptokinase activity reduction – plasminogen activation absorbance, OD405, dose response (AID 1914); assay type: functional, Streptococcus pyogenes M1 GAS;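 note: secreted streptokinase activity via plasminogen activation per viability signal from cell pellet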
T5 sequence (P10520 whole entry): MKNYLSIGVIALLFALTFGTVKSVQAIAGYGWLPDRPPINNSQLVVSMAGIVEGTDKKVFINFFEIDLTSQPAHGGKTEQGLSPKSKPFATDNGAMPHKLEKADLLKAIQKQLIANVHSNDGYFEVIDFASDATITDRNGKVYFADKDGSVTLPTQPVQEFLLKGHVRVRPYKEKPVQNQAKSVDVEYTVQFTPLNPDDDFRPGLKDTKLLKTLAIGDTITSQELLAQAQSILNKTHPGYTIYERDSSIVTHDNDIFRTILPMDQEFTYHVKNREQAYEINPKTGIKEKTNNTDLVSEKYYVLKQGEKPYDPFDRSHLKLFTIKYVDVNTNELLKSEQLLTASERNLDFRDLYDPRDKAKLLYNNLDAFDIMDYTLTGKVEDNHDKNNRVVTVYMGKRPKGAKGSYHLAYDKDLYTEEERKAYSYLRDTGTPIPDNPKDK

Streptococcus = assay: GAS UMAA2166 growth inhibition – luminescence, BacTiterGlo, counter-screen for streptokinase expression inhibitor project, dose response (AID 1915); assay type: functional, organism-based;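 note: potency for reduction of bacterial viability or growth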
[11] = Luminescence Cell-Based Dose Confirmation HTS to Identify Activators of 5'UTR Stem-Loop Driven Alpha-Synuclein mRNA Translation in H4 Neuroglioblastoma Cells. [Related pubchem assays: 1829 (Project Summary), 1814 (Primary HTS)]; assay type: functional
[12] = Luminescence Cell-Based Dose Response HTS to Identify Activators of Luciferase Translation or Activity in H4 […] Cells. [Related pubchem assays: 1829 (Project Summary), 1814 (Primary HTS)]; assay type: functional
H4 = assay: Luminescence Cell-Based Dose Response HTS to Identify Activators of 5'UTR Stem-Loop Driven Prion Protein mRNA Translation in H4 Neuroglioblastoma Cells. [Related pubchem assays: 1829 (Project Summary), 1814 (Primary HTS)]; assay type: functional; conditions: Homo sapiens
[13] = biological target: T6, Microphthalmia-associated transcription factor (Homo sapiens, UniProt O75030); assay: reducers of TRPM1 reporter luminescence, concentration series – cell-based, SK-MEL-5, cherry-picked, set 3, MITF inhibitor project, dose response (AID 493073); assay type: functional;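 note: SK-MEL-5 melanoma cells with luciferase driven by the MITF target TRPM1 promoter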
T6 sequence (O75030 whole entry): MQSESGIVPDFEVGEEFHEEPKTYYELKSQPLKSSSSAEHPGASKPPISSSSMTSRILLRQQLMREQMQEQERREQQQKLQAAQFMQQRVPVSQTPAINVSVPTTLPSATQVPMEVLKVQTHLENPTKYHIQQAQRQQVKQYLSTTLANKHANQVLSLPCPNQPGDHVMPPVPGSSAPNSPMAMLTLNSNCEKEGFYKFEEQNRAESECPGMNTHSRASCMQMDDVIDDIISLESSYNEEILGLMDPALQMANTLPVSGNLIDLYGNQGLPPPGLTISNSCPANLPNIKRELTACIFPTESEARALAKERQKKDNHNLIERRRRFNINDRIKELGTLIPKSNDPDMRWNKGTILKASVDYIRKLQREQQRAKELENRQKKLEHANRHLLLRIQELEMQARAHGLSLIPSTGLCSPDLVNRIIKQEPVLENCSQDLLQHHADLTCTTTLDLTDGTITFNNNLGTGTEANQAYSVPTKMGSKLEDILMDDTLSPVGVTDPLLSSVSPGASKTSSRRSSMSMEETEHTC

[14] = biological target: T7, Endoribonuclease toxin MazF (Escherichia coli K-12, UniProt P0AE70); assay: activation of MazEF endoribonuclease cleavage – biochemical, fluorescence, single-stranded RNA substrate, uHTS hits, dose response (AID 588481); assay type: functional
T7 sequence (P0AE70 whole entry): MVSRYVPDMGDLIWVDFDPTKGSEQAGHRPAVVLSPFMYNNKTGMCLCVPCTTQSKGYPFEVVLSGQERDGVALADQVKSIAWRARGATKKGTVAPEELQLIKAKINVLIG

[15] = biological target: T7, Endoribonuclease toxin MazF; assay: substrate-only fluorescence increase artefacts – biochemical, single-stranded RNase substrate, counter-screen for MazEF activator project, dose response (AID 588502); assay type: functional
[16] = biological target: Dual specificity tyrosine-phosphorylation-regulated kinase 1A (Rattus norvegicus, UniProt Q63470); assay type: biochemical, Homo sapiens
[17] = biological target: T8, Rac GTPase-activating protein 1 (Homo sapiens, UniProt Q9H0H5); assay: blockers of MgcRacGAP-driven Rac1 GTP hydrolysis – biochemical, ADP Hunter fluorescence, primary and confirmatory, confirmation (AID 624330); assay type: functional
T8 sequence (Q9H0H5 whole entry): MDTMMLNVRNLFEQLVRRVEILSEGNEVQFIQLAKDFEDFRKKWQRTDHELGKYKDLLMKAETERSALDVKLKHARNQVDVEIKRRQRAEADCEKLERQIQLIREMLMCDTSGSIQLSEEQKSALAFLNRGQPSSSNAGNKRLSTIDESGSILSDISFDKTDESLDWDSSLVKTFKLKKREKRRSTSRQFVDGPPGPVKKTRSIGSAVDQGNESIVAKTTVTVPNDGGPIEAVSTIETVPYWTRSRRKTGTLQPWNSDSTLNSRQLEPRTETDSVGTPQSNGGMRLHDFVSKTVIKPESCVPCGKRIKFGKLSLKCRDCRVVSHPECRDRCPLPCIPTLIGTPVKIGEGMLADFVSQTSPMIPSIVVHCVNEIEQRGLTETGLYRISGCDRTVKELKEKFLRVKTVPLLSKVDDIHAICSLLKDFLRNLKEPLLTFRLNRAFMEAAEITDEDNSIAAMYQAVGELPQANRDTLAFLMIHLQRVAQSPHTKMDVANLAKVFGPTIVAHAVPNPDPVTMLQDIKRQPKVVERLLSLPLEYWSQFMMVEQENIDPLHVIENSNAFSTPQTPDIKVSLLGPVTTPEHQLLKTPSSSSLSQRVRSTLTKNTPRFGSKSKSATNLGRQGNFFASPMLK

Cytochrome P450 3A4 = Cytochrome P450 3A4 (Homo sapiens, UniProt P08684);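 note: CYP3A4 tested as one member of a cytochrome P450 panel screen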
Cytochrome P450 3A4, sequence (P08684 whole entry): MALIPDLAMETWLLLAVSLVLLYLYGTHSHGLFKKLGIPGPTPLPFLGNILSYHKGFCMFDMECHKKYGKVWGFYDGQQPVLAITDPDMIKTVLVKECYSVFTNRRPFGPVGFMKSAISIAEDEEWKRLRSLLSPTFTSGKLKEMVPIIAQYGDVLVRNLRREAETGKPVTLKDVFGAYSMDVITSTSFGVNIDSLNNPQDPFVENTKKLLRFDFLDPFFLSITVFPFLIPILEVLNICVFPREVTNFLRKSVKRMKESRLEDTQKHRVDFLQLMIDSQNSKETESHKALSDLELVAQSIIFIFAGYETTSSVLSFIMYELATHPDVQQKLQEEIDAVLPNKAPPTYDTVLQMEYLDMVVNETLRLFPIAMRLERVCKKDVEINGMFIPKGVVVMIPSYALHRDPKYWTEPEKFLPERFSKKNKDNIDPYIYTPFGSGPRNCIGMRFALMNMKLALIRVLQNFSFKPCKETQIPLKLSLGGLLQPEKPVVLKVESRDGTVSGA

Beta-galactosidase, sequence (Q8VNN2 whole entry): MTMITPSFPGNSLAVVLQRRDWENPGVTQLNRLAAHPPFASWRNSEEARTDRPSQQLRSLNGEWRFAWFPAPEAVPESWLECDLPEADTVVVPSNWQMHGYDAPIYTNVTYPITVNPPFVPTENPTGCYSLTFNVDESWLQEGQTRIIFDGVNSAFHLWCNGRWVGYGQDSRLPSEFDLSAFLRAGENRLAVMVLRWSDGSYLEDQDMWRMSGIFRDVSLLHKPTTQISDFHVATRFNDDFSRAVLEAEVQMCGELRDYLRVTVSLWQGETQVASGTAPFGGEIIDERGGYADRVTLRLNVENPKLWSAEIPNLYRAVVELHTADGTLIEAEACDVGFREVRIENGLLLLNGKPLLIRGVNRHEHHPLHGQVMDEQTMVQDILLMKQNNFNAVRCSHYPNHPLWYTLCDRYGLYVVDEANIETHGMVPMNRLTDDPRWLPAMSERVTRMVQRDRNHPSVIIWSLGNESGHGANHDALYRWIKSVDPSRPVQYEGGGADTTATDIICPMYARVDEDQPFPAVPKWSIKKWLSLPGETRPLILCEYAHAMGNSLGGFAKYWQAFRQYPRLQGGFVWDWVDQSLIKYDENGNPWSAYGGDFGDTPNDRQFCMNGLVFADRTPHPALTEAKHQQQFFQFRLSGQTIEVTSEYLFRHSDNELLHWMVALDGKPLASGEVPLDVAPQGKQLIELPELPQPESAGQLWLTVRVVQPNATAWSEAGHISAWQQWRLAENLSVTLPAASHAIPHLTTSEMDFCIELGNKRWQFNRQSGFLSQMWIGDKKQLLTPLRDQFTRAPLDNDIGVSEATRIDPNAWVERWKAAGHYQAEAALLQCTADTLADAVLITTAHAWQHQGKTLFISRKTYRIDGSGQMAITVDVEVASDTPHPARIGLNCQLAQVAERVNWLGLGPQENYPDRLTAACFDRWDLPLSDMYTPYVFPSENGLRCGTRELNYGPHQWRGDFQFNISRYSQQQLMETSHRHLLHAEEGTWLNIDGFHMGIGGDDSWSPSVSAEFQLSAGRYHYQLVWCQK

Cc1ccc(/N=C2\C(=O)Nc3ccccc32)cc1
EC50 (Beta-galactosidase): > 40 µM (inactive) | IC50 [1]: > 40 µM (not active)

O=C(Nc1ccc(O)c(-c2nc3ccccc3s2)c1)c1cc(=O)c2ccccc2o1
IC50 [2]: 5.27 µM (active)

O=C(C[N+]1(CC#Cc2ccccc2)CCOCC1)c1ccc(Cl)cc1
EC50 (Beta-galactosidase): > 40 µM (inactive) | IC50 [1]: 39.4 µM (not active)

CC(=O)Nc1ccc(S(=O)(=O)N2CCN=C2SCc2ccc([N+](=O)[O-])cc2)cc1
AC50 [3]: 0.252 µM (active) | IC50 [4]: 2.82 µM (active)

Cc1ccc(SCCC(=O)N/N=C/c2cccnc2)cc1
IC50 [5]: 29.2 µM (inactive) | IC50 [6]: 83.3 µM (inactive) | IC50 [7]: 25.9 µM (inactive)

O=C(COC(=O)c1ccc([N+](=O)[O-])s1)NC(c1ccccc1)c1ccccc1
EC50 [8]: 32.8 µM (inactive)

COc1ccc(N=C2C(=O)Nc3ccc(C)c(Br)c32)cc1
EC50 (Beta-galactosidase): > 40 µM (inactive) | IC50 [1]: 3.94 µM (active)

O=C(Cc1ccc(S(=O)(=O)N2CCOCC2)s1)Nc1ccc(Br)c(C(F)(F)F)c1
IC50 [5]: 19.2 µM (inactive) | IC50 [6]: 46.7 µM (inactive) | IC50 [7]: 20.9 µM (inactive)

O=C(O)c1cn(C2CC2)c2cc(N3CCN(S(=O)(=O)c4ccc5c(c4)OCCO5)CC3)c(F)cc2c1=O
IC50 [2]: 2.89 µM (active)

COc1cc(Nc2ccc(C(=O)O)cc2[N+](=O)[O-])cc(OC)c1
EC50 [8]: > 104 µM (inactive)

O=C(CNc1cccc(Cl)c1)c1ccc(Cl)cc1
EC50 (Beta-galactosidase): > 40 µM (inactive) | IC50 [1]: 5.07 µM (active)

O=C(NNC(=O)c1cc(-c2ccc(Cl)cc2Cl)nc2ccccc12)Nc1ccccc1
CC50 [9]: 16.9 µM (active) | EC50 [10]: 5.3 µM (active) | EC50 (Streptokinase A): 20.4 µM (active) | EC50 (Streptococcus): 8.55 µM (active) | IC50 [5]: 2.74 µM (active) | IC50 [6]: 42.2 µM (inactive) | IC50 [7]: 1.28 µM (active)

CCOC(=O)CSC1=NC(=O)/C(=C\c2ccc(OC(C)=O)cc2)S1
EC50 [11]: 8.97 µM (active) | EC50 [12]: 10.4 µM (active) | EC50 (H4): 10.5 µM (active) | AC50 [13]: 5.12 µM (active) | EC50 [14]: > 99 µM (inactive) | EC50 [15]: > 99 µM (inactive) | AC50 [16]: 0.216 µM (active) | IC50 [17]: 35.2 µM (active) | AC50 (Cytochrome P450 3A4): 14.1 µM (inconclusive)
